Results on two compounds are retold here after US4988735A, “Ethylene diamine active cardiovascular therapy” (Simes, priority 1987, dated 1991).

What is called IC50 is the midpoint of a concentration-inhibition curve.

For one assay, the system named is vascular smooth muscle. The following applies: according to data in European Patent No. 41,757; cited from earlier work.
The subject of the next assay is systemic hemodynamics. Briefly: Effects on systemic hemodynamics in dogs anaesthetized with pentobarbital (i.v. bolus). In kind it is in vivo, dog. The following applies: for Heart rate: average ± SD, basal: Compound II 167±15, Compound A 178±11; for Heart index: basal: Compound II 1.547±0.147, Compound A 1.820±0.311; for Total peripheral resistances: basal: Compound II 78.497±8.587 (** p<0.01), Compound A 63.985±5.037; for Arterial pressure, minimum: basal: Compound II 101±5 (** p<0.01), Compound A 97±11; for Arterial pressure, medium: basal: Compound II 117±7 (** p<0.01), Compound A 112±12; for Maximum ejection rate: basal: Compound II 126.79±14.41 (* p<0.05), Compound A 138.59±21.74; for Arterial pressure, maximum: basal: Compound II 149±11 (* p<0.05), Compound A 143±14. Here is the method:
(§1) Catheters for detection of arterial pressure and flow electromagnetic transducers for measuring heart flow (heart index) and coronary flow were inserted in dogs anaesthetized with pentobarbital. The resistances were calculated from the pressure/flow ratio.

The subject of assay [1] is serotonin-enhanced aggregation of dog blood platelets. Description: Enhancement in aggregation induced by serotonin, dog blood platelets. In kind it is cell-based. The following applies: Canis lupus familiaris, Platelet, dihydrochloride, read-out: Threshold Inhibiting Concentration (TlC). Here is the method: (b) Enhancement in aggregation induced by serotonin.
The addition of 5HT to dog blood platelets causes the aggregation of non-aggregating concentrations of adenosine diphosphate, collagen and adrenaline.
The effects of compound II (dihydrochloride) expressed as single concentration, were evaluated by pre-incubating the blood platelets with different concentrations of the product and expressed as Threshold Inhibiting Concentration (TlC): […]

In assay [2] the test system is serotonin-induced spasm of mesenteric artery. Description: Antagonism towards vascular spasms induced by serotonin, mesenteric artery strips. The following applies: Krebs solution 37 °C, fiduciary limits 0.15-0.31. Format: cell-based. As for the experimental part: (§2) (a) Antagonism towards vascular spasms induced by serotonin. Vascular strips of mesenteric artery and rabbit aorta were put into baths for isolated organ containing Krebs solutions at 37° C. and aerated with a mixture of oxygen and carbon dioxide 95:5.
(§3) The addition of serotonin to the bath causes a spasm which is detected by a strength transducer.
(§4) The antagonistic activity of compound II, evaluated as inhibiting concentration (IC50), gave the following results: […]

Assay [3] deals with arteriosclerotic plaques in aorta. Briefly: Prevention of the formation of arteriosclerotic plaques in rabbits on hypercholesterolemic diet. Format: in vivo, rabbit. As for the experimental part: Rabbits HY/CR were feeded with iperchloesterolemic diet (2% (cholesterol) for 60 days at the end of which, by planimetry after colouring aorta with Sindon Black, the extent of arteriosclerotic plaques was evaluated. […]

The test system of a further assay is serotonin. Briefly: Specific antagonism of serotonin effects on blood platelets and vessels (general statement). The source says:
Evaluation of specific antagonistic activity to serotonin (5TH) effects

In assay [4] the test system is smooth muscle cells isolated from rat aorta. Description: Inhibition of arterial smooth muscle cell proliferation. In kind it is cell-based. Here is the method:
A culture of smooth muscle cells was isolated by rat aorta incubated in the presence of the tested Compounds II, A, B, C and D for 24, 48 and 72 hours in a minimal essential medium added with bovine fetal serum: at the above intervals the number of cells in the culture was counted by a hemocytometer and compared with the number of cells in a control culture.

The test system of assay [5] is serotonin-induced spasm of rabbit aorta. Briefly: Antagonism towards vascular spasms induced by serotonin, aorta strips. Format: cell-based. The following applies: Oryctolagus cuniculus, Krebs solution 37 °C, fiduciary limits 0.05-0.56. Here is the method: as §2, §3, §4
The subject of assay [6] is serotonin-induced shape change of rat blood platelets. Briefly: Change of the shape of blood platelets induced by serotonin. In kind it is cell-based. Particulars: Platelet, pre-treated, dihydrochloride. Here is the method:
(c) Change of the shape of blood platelets induced by serotonin. The addition of serontonin to rat blood platelets causes a change in the shape which is measured by an aggregometer as maximum decrease in light transmission.
Compund II (dihydrochloride) was tested by pre-treating the blood platelets with different concentrations of product and the activity was expressed as 50% inhibiting concentration (IC50).

Another assay deals with coronary hemodynamics. Briefly: Effects on coronary hemodynamics in dogs anaesthetized with pentobarbital (i.v. bolus). In kind it is in vivo, dog. Here is the method:
as §1

The structures appear in SMILES notation. Like-named read-outs stand apart in the source and are kept apart here.

Consider `COc1cc(CN(C)CCN(C)CCC(c2ccccc2)c2ccccc2)cc(OC)c1OC` [Compound A, N,N'-dimethyl-N-(3,4,5-trimethoxybenyl)-N'-(3,3-diphenyl-propyl)-ethylenediamine, reference compound], for which the “Anti-spasmodic activity (in words)” value with vascular smooth muscle is on record as “most active compound”. Further, in the assay with systemic hemodynamics (dog, 1 mg/kg (four times higher dose)), the “Hemodynamic effects compared with Compound II (in words)” value is “Comparable effects to compound II”. Moreover, the “Cardiac output (in words)” value in the assay with systemic hemodynamics (dog, Compound A at 1 mg/kg) is listed as “decrease in cardiac output”. Moreover, in the assay with systemic hemodynamics (dog, i.v. bolus 0.25 mg/kg), the “Effects on peripheral vascular resistances and on arterial pressure (in words)” value is “borderline effects”; the Heart rate is given as 147±8 beats/min; the Heart index is listed as 1.615±0.237 l/min/m^2; the Total peripheral resistances worked out at 45.023±2.849 mmHg/l/min. Also, in the assay with systemic hemodynamics (dog, i.v. bolus 0.25 mg/kg), the “Arterial pressure, minimum” value came to 50±3 mmHg; the “Arterial pressure, medium” value is 71±8 mmHg; the Maximum ejection rate is reported as 135.58±17.55 ml/sec/m^2; the “Arterial pressure, maximum” value is recorded as 98 mmHg. The same compound yielded a Systolic index in the assay on systemic hemodynamics (dog, i.v. bolus 0.25 mg/kg, Compound A, basal 10.09±1.29 (* p<0.05)) of 11.11±1.49 ml/beatsm^2.

Consider `COc1cc(CN(C)CCN(C)CCC(c2ccc(F)cc2)c2ccc(F)cc2)cc(OC)c1OC` [Compound II, N,N'-dimethyl-N-(3,4,5-trimethoxybenzyl)-N'-[3,3-di-(4-fluorophenyl)-propyl]-ethylenediamine], for which the minimal effective concentration turned out to be 37 ± 20 µM in [1] (adenosine diphosphate + serotonin), 11 ± 5.4 µM in [1] (adrenaline + serotonin) and 5.6 ± 4 µM in assay [1] (collagen + serotonin). In addition, the IC50 came to 0.22 µM in assay [2]; 10 µM in assay [4] (rat aorta smooth muscle cells, 24, 48 and 72 hours (time of the IC50 not stated)); 0.16 µM in [5]; 8.35 ± 1.35 µM in assay [6]. For the same compound, the “Reduction of the area of plaques in aorta” value in assay [3] (rabbit, 1 mg/kg s.c. twice a day, 60 days) is recorded as 40%. Besides, in [3] (rabbit, 3 mg/kg s.c. twice a day, 60 days), the “Reduction of the formation / area of plaques in aorta” value turned out to be 60%. In [3] (rabbits on hypercholesterolemic diet), the “Prevention of the formation of arteriosclerotic plaques (in words)” value is reported as “able to prevent the formation of arteriosclerotic plaques”. For the same compound, the “Antagonism of serotonin effects on blood platelets and vessels (in words)” value in the assay on serotonin is given as “able to antagonize, in a specific way, the effect of serotonin on blood platelets as well as on vessels”. In assay [4], the “Arterial smooth muscle cell proliferation (in words)” value is “inhibit arterial smooth muscle cell proliferation”. In addition, the “Inhibition of cell proliferation (in words)” value in assay [4] (5 μM, 24, 48 and 72 hours) is recorded as “inhibited meaningfully cell proliferation”. In addition, the “Cardiac output (in words)” value in the assay on systemic hemodynamics (anesthetized dogs) is recorded as “increase in cardiac output”. The “Heart rate (in words)” value in the assay with systemic hemodynamics (anesthetized dogs) is on record as “without a contemporaneous increase in heart rate”. For the same compound, the “Systemic vascular resistances (in words)” value in the assay on systemic hemodynamics (anesthetized dogs) was “decrease in systemic and coronary vascular resistances”. This compound showed a Systolic index in the assay with systemic hemodynamics (dog, i.v. bolus 0.25 mg/kg, Compound II, basal 9.51±1.24 (* p<0.05)) of 13.39±1.00 ml/beats/m^2. Moreover, the Heart rate came to 156±12 beats/min with systemic hemodynamics (dog, i.v. bolus 0.25 mg/kg) and 143±15 beats/min with coronary hemodynamics (dog, coronary hemodynamics, i.v. bolus 0.25 mg/kg, basal 140±14). Moreover, the Heart index in the assay on systemic hemodynamics (dog, i.v. bolus 0.25 mg/kg) amounted to 2.088±0.240 l/min/m^2. Further, the Total peripheral resistances with systemic hemodynamics (dog, i.v. bolus 0.25 mg/kg) is recorded as 44.366±4.200 mmHg/l/min. Moreover, the “Arterial pressure, minimum” value with systemic hemodynamics (dog, i.v. bolus 0.25 mg/kg) is 72±2 mmHg; in the assay on coronary hemodynamics (dog, coronary hemodynamics, i.v. bolus 0.25 mg/kg, basal 103±6), 87±3 mmHg. The “Arterial pressure, medium” value in the assay with systemic hemodynamics (dog, i.v. bolus 0.25 mg/kg) was found to be 89±3 mmHg; in the assay with coronary hemodynamics (dog, coronary hemodynamics, i.v. bolus 0.25 mg/kg, basal 116±4), 102±5 mmHg. The Maximum ejection rate in the assay with systemic hemodynamics (dog, i.v. bolus 0.25 mg/kg) worked out at 174.77±10.27 ml/sec/m^2. Besides, the “Arterial pressure, maximum” value with systemic hemodynamics (dog, i.v. bolus 0.25 mg/kg) amounted to 130±6 mmHg; in the assay on coronary hemodynamics (dog, coronary hemodynamics, i.v. bolus 0.25 mg/kg, basal 145±3) it was 142±5 mmHg. Further, the “Coronary vascular resistances (in words)” value with coronary hemodynamics (anesthetized dogs) is “decrease in systemic and coronary vascular resistances”. Also, the Average coronary resistances in the assay on coronary hemodynamics (dog, i.v. bolus 0.25 mg/kg, basal 2.887±0.381, * p<0.05) was found to be 1.301±0.141 mmHg/ml/min. In addition, the “Left circumflex coronary artery flow” value in the assay with coronary hemodynamics (dog, i.v. bolus 0.25 mg/kg, basal 41.3±3.7, * p<0.05) is 101.6 ± 10.8 mL/min.
